Common to all, as to type: cell-based
One assay deals with MV4-11 cell line. The assay is described as follows: CellTiter-Glo Luminescent Cell Viability Assay, cell growth inhibition. The settings on record: Homo sapiens, 96 h, 4 days. The essentials: (§1)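 Cells plated at 2,000/well with serially diluted compounds, incubated 4 days at 37° C, 5% CO2. Viability read by CellTiter-Glo luminescence after 10-20 min at room temperature; IC50 from dose-response fit.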

The next assay relates to RS4; 11 cell line. The description is as above. The settings on record: Homo sapiens, 96 h, 4 days. A digest of the protocol: as §1
Assay [1] relates to p53 target genes: p21, PUMA and BAX. The assay is described as follows: Activation of p53 downstream target genes, quantitative real-time PCR. The settings on record: RS4; 11 cells; 0.3 μM; 3, 6, or 12 hours. The protocol:
RS4; 11 cells were treated with Cpd. A (0.3 μM), Cpd. No. 15 (10 nM), and Cpd. No. 22 (10 nM) for 3, 6, or 12 hours, and then harvested and washed. Cellular mRNA samples were extracted from the cells and then subjected to Reverse Transcription and quantitative real-time PCR for the analysis of the mRNA levels of three representative p53 target genes: p21, that induces cell cycle arrest, and PUMA and BAX that leads to apoptosis. […] A, Cpd. No. 15, and Cpd. No. 22.

A further assay relates to RS4; 11 cells. The assay is described as follows: Cell growth inhibition by WST assay with Cpd. C co-treatment (CRBN competition). Further details: LogIC50: unit not given here. The settings on record: for HillSlope / IC50 / LogIC50: 4 days. The protocol: RS4; 11 cells were pre-incubated with different concentrations of Cpd. C to compete for the binding of phthalimide to CRBN, or DMSO, for 2 hours before adding Cpd. A, Cpd. No. 14, Cpd. No. 15, and Cpd. No. 22. The cells were then co-treated with 10, 20, or 30 μM Cpd. C and increasing concentrations of Cpd. A, Cpd. No. 14, Cpd. No. 15, and Cpd. No. 22 for 4 days, with a starting cell concentration of ˜15,000/well. Cell growth inhibition was determined by the WST assay. […] No. 14, Cpd. No. 15, and Cpd. No. 22 with co-treatment of Cpd. C. The structure of Cpd.

In assay [2] the test system is RS4; 11 cells with stable shRNA knockdown of p53. Nature of the assay: Cell growth inhibition by WST assay, p53 knockdown cells. Further details: LogIC50: unit not given here. Particulars: RS4;11 sh p53, 4 days; for IC50: Homo sapiens, 96 h. The procedure: (§2) RS4; 11 cells with stable shRNA knockdown of p53 or those transfected shRNA control vector were treated with Cpd. A, Cpd. B, Cpd. No. 14, Cpd. No. 21, Cpd. No. 15, and Cpd. No. 22 for 4 days, with a cell concentration of ˜15,000/well. Cell growth inhibition was determined by WST assay. See Table 7 (p53) and Table 8 (control). Significant increases in IC50 of the Compounds of the Disclosure in the p53 knockdown RS4; 11 cells were observed compared with that in the sh control cells. […] The p53 knockdown efficiency was determined by western blot for p53 protein levels with or without treatment of Cpd. A (1 μM) for 2 hours.

The subject of assay [3] is RS4; 11 cells transfected shRNA control vector. The assay is described as follows: Cell growth inhibition by WST assay, shRNA control cells. Further details: LogIC50: unit not given here. The settings on record: RS4;11 sh Control, 4 days; for IC50: Homo sapiens, 96 h. The procedure:
as §2

Assay [4] deals with T1, MDM2 (Homo sapiens, UniProt Q00987). Nature of the assay: MDM2 degradation with or without proteasome inhibitor MG-132, western blotting. Further details: endogenous in cells; host or cells: RS4;11. Particulars: FIG. 6. The protocol: RS4; 11 cells were pre-incubated with the proteasome inhibitor MG-132 (20 μM) or without any pre-incubation for 2 hours. Next, the cells were treated with Cpd. A (0.3 μM), Cpd. No. 14 (0.03 μM), Cpd. No. 15 (0.01 μM), and Cpd. No. 22 (0.01 μM) for 2 hours, then harvested and lysed. The cell lysates were subject to western blotting analysis.
T1 sequence (Q00987 whole entry): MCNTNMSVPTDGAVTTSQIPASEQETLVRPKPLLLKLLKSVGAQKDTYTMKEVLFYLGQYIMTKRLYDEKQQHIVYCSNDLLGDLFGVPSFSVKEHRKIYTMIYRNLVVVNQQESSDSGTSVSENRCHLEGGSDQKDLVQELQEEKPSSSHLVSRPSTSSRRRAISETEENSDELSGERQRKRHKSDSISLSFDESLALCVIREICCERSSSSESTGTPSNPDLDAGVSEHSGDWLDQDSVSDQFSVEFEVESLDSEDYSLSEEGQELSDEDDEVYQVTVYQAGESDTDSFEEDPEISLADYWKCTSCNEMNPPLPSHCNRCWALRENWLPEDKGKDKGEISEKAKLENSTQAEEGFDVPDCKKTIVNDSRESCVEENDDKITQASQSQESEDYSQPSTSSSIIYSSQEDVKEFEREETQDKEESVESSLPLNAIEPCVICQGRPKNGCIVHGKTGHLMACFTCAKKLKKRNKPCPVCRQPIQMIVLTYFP

Assay [5] has as its target T1, MDM2. Nature of the assay: MDM2 degradation and p53 activation after pre-incubation with Cpd. C, Western blot. Further details: endogenous in cells; host or cells: RS4;11. The protocol:
RS4; 11 cells were pre-incubated with 30 μM Cpd. C to compete for the binding of phthalimide to CRBN, or DMSO, for 2 hours before adding Cpd. A, Cpd. No. 14, Cpd. No. 15, and Cpd. No. 22. In the Western blot RS4; 11 cells were then co-treated with the indicated compounds at the indicated concentrations after pre-incubation. […] No. 14, Cpd. No. 15, and Cpd.

Where [6] appears, read: Homo sapiens, 96 h, without Cpd. C.
[7] abbreviates: RS4, 11 cells, pre-incubated with 30 μM Cpd. C for 2 hours.

Consider two molecules from US12637473B2, “MDM2 protein degraders” (THE REGENTS OF THE UNIVERSITY OF MICHIGAN, priority 2016, dated 2026).

Take `O=C(O)c1ccc(NC(=O)[C@@H]2NC3(CCCCC3)[C@@]3(C(=O)Nc4cc(Cl)ccc43)[C@H]2c2cccc(Cl)c2F)cc1` [Cpd. A, reference compound]: the IC50 in the assay on MV4-11 cell line is 100 nM; with RS4; 11 cell line, 86 nM; in the assay on RS4; 11 cells (+ 10 uM Cpd. C) it was 48.1 nM; in the assay on RS4; 11 cells (+ 20 uM Cpd. C), 39 nM; in the assay with RS4; 11 cells (+ 30 uM Cpd. C), 36.5 nM; in the assay with RS4; 11 cells (setting [6]) it was 93.3 nM. The results for the IC50 in assay [2] and in assay [3] were 9830 nM and 97.5 nM, respectively. Further, the “activation of p53 downstream target genes (mRNA levels of p21, PUMA, BAX)” value in assay [1] is “Significant activation”. Further, the HillSlope is listed as −1.569 with RS4; 11 cells (+ 10 uM Cpd. C), −1.406 in the assay with RS4; 11 cells (+ 20 uM Cpd. C), −1.411 with RS4; 11 cells (+ 30 uM Cpd. C) and −1.496 in the assay on RS4; 11 cells (without Cpd. C). Further, the LogIC50 in the assay with RS4; 11 cells (+ 10 uM Cpd. C) was −1.317; in the assay with RS4; 11 cells (+ 20 uM Cpd. C) it was −1.409; in the assay with RS4; 11 cells (+ 30 uM Cpd. C), −1.438; with RS4; 11 cells (without Cpd. C) it was −1.030; in assay [2] it was 0.9926; in assay [3], −1.011. In addition, the HiliSlope in assay [2] is listed as −0.4240; in assay [3] it was −1.155.
On to `O=C1CCC(N2C(=O)c3cccc(NCCOCCOCCNC(=O)c4ccc(NC(=O)[C@@H]5NC6(CCCCC6)[C@@]6(C(=O)Nc7cc(Cl)ccc76)[C@H]5c5cccc(Cl)c5F)cc4)c3C2=O)C(=O)N1` (stereo partly drawn) [Cpd. No. 14, (3′R,4'S,5′R)-6″-chloro-4′-(3-chloro-2-fluorophenyl)-N-(4-((2-(2-(2-((2-(2,6-dioxopiperidin-3-yl)-1,3-dioxoisoindolin-4-yl)amino)ethoxy)ethoxy)ethyl)carbamoyl)phenyl)-2″-oxodispiro[cyclohexane-1,2′-pyrrolidine-3′,3″-indoline]-5′-carboxamide], for which the IC50 in the assay on MV4-11 cell line was 7.6 nM; in the assay with RS4; 11 cell line, 8.5 nM; with RS4; 11 cells (+ 10 uM Cpd. C), 57 nM; with RS4; 11 cells (+ 20 uM Cpd. C), 81.1 nM; in the assay on RS4; 11 cells (+ 30 uM Cpd. C) it was 77.4 nM; in the assay on RS4; 11 cells (setting [6]) it was 7.13 nM. Besides, the IC50 in assay [2] was 501 nM; in assay [3], 9.67 nM. The HillSlope is −1.705 in the assay with RS4; 11 cells (+ 10 uM Cpd. C), −1.667 in the assay on RS4; 11 cells (+ 20 uM Cpd. C), −1.600 in the assay on RS4; 11 cells (+ 30 uM Cpd. C) and −1.996 with RS4; 11 cells (without Cpd. C). Moreover, the LogIC50 in the assay with RS4; 11 cells (+ 10 uM Cpd. C) is recorded as −1.244; in the assay on RS4; 11 cells (+ 20 uM Cpd. C), −1.091; in the assay on RS4; 11 cells (+ 30 uM Cpd. C) it was −1.111; in the assay with RS4; 11 cells (without Cpd. C), −2.147; in assay [2] it was −0.3000; in assay [3] it was −2.014. For the same molecule, in the assay with RS4; 11 cells (co-treatment of Cpd. C (10, 20, or 30 μM)), the “shift of the dose response curves” value was “Significant rightward shifts”. The HiliSlope in assay [2] is given as −0.4731; in assay [3], −1.475. At MDM2 [4], the “MDM2 degradation, dependence on proteasome” value is recorded as “proteasome-dependent”. Besides, the “MDM2 degradation, dependence on cereblon (CRBN)” value on MDM2 [5] (FIG. 7) is given as “cereblon (CRBN)-dependent”. On MDM2 [5] (setting [7]), the “MDM2 degradation, competition by Cpd. C” value is recorded as “significantly competed by Cpd. C”. In addition, the “p53 activation, competition by Cpd. C” value on MDM2 [5] (setting [7]) was “significantly competed by Cpd. C”.
